The record followed here is US10603385B2, “Methods and compositions for templated assembly of nucleic acid specific heterocompounds” (priority 2013, dated 2020).

For the assay, the system named is Caski cells. Briefly: Azide-cyclooctyne templated assembly on HPV16 E6/E7 in transfected living cells, sandwich detection of ligated product. The assay is classed as cell-based, human. To be noted: Lipofectamine 2000 transfection, 24 hours after transfection. As for the experimental part: A set of corresponding reactants specific for the HPV16 E6/E7 gene were transfected into Caski cells to evaluate non-traceless nucleic acid templated assembly on tumor-associated targets in living cells. Sandwich enzymatic detection was used to confirm that templated assembly ligation product was preferentially formed in Caski cells rather than related cell lines lacking HPV16 E6/E7 sequence
Caski and HeLa cell lines were cultured in DMEM medium with 10% heat inactivated fetal bovine serum. For each experimental condition, 1×10^6 cells were plated in a T-25 flask 24 hours before transfection. A flask from each cell line was transfected with both templated assembly reactants (experimental), and Caski flasks were also transfected with each one of the reactants in isolation as well (negative controls).
Lipofectamine 2000 (Invitrogen) was used as the transfection reagent in accordance with the manufacturer's instructions Immediately prior to transfection, cell flasks were washed with 1×PBS and Optimem serum-free medium was added as the growth medium. […] Separately, 11 uL of Lipofectamine 2000 was incubated with 275 uL of Optimem serum-free medium for 15 minutes. […] 500 uL of the Oligo-3.1-Lipofectamine transfection solution was then dispensed to the experimental flask. […]

For the substance “5′-FAM-CCAGAUGUCUUUGCU-Azide-3′ [Oligo-3.1]”, the “Corrected Absorbance A450” value turned out to be 0.003.
